From the kinase profiling compilation of Christmann-Franck et al. (2016)
One block for each compound: values may come before it.

Assays:
Test in all cases: radiometric filter-binding kinase assay
PRKCA (human) = PRKCA (human) (UniProt P17252)
HIPK2 (human) = HIPK2 (human) (UniProt Q9H2X6)
YES1 (human) = YES1 (human) (UniProt P07947)
NEK6 (human) = NEK6 (human) (UniProt Q9HC98)
NEK2 (human) = NEK2 (human) (UniProt P51955)
MAP3K9 (human) = MAP3K9 (human) (UniProt P80192)
MAPK11 (human) = MAPK11 (human) (UniProt Q15759)
[1] = tested on: AKT2 (human), P31751 [S474D]
INSRR (human) = INSRR (human) (UniProt P14616)
BTK (human) = BTK (human) (UniProt Q06187)
DYRK2 (human) = DYRK2 (human) (UniProt Q92630)
INSR (human) = INSR (human) (UniProt P06213)
MAPK14 (human) = MAPK14 (human) (UniProt Q16539)
MAPK14 (human), sequence (Q16539 whole entry, looked up): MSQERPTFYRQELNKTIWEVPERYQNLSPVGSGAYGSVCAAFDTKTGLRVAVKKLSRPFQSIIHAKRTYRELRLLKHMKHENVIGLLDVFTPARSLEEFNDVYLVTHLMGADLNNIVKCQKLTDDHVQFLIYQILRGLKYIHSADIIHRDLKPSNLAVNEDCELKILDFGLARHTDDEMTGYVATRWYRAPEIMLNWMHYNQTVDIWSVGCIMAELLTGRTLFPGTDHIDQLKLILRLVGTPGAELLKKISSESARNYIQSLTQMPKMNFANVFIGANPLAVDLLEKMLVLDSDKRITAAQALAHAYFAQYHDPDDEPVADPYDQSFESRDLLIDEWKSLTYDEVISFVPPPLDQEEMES

MARK4 (human) = MARK4 (human) (UniProt Q96L34)
CSNK2A1 (human) = CSNK2A1 (human) (UniProt P68400)
CSNK2A1 (human), sequence (P68400 whole entry, looked up): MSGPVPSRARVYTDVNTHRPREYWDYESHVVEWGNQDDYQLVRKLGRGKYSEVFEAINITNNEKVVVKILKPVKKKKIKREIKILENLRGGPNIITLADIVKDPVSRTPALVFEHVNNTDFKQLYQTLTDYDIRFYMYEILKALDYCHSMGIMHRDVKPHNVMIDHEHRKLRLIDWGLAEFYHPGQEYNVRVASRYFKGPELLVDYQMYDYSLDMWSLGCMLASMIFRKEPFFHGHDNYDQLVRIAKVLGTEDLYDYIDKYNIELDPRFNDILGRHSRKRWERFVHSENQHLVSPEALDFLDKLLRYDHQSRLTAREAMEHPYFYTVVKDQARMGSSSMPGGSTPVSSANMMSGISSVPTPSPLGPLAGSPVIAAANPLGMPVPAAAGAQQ

MAPK1 (human) = MAPK1 (human) (UniProt P28482)
MARK3 (human) = MARK3 (human) (UniProt P27448)
MARK3 (human), sequence (P27448 whole entry, looked up): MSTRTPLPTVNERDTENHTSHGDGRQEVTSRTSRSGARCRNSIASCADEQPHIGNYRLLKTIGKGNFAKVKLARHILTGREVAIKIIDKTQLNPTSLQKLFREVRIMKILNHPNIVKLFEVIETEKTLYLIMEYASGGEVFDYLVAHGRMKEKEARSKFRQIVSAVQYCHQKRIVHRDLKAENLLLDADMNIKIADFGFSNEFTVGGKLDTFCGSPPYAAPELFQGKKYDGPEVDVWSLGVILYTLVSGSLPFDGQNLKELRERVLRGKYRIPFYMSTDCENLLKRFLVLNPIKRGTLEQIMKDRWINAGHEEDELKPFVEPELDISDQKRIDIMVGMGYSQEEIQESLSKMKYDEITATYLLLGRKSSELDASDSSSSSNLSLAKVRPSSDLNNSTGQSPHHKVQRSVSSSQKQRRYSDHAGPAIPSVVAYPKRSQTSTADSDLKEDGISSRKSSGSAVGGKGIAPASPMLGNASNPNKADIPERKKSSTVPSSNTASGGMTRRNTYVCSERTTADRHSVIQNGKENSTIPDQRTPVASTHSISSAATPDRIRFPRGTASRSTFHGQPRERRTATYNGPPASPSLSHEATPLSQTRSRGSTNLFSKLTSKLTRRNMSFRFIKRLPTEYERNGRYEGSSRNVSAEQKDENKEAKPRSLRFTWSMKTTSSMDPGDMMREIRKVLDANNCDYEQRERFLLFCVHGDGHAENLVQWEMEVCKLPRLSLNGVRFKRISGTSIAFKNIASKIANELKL

NTRK1 (human) = NTRK1 (human) (UniProt P04629)
IRAK4 (human) = IRAK4 (human) (UniProt Q9NWZ3)
MAPK15 (human) = MAPK15 (human) (UniProt Q8TD08)
MAPK15 (human), sequence (Q8TD08 whole entry, looked up): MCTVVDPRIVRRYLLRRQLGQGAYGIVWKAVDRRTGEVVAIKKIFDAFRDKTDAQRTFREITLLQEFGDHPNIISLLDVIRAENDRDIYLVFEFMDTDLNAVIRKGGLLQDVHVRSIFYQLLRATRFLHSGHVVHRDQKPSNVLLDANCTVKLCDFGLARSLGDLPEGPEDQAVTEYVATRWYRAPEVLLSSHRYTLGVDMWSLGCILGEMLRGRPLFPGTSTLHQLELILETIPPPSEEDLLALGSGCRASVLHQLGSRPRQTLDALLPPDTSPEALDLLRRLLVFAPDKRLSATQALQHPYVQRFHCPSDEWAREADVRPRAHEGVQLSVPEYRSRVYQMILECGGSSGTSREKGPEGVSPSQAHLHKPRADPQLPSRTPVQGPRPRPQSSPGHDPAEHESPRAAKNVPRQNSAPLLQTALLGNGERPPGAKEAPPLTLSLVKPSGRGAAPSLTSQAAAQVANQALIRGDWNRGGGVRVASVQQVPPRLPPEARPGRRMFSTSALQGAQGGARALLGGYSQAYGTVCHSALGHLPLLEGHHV

MKNK2 (human) = MKNK2 (human) (UniProt Q9HBH9)
RPS6KA5 KD1 KD2 (human) = RPS6KA5 KD1 KD2 (human) (UniProt O75582)
RPS6KA5 KD1 KD2 (human), sequence (O75582 whole entry, looked up): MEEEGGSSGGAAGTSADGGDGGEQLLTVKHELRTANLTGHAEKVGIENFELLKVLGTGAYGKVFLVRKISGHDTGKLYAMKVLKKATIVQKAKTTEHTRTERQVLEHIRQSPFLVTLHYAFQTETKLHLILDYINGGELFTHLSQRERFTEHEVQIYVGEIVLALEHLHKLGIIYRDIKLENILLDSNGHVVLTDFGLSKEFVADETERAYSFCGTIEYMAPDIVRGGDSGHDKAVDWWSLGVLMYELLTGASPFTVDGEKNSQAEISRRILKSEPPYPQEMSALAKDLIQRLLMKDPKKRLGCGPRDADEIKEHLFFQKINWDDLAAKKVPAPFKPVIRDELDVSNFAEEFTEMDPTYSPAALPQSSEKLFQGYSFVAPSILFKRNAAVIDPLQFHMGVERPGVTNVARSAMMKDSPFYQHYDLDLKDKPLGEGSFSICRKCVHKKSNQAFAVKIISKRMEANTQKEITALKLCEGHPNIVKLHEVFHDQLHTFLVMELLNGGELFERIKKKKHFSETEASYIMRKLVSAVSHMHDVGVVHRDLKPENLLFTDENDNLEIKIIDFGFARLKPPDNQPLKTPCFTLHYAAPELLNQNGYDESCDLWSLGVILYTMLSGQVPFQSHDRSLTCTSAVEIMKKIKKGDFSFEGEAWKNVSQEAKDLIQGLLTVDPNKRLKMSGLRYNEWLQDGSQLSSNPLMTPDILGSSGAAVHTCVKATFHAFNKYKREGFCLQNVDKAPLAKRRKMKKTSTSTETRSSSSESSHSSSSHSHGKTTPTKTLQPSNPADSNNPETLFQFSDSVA

AURKA (human) = AURKA (human) (UniProt O14965)
RIPK2 (human) = RIPK2 (human) (UniProt O43353)
RIPK2 (human), sequence (O43353 whole entry, looked up): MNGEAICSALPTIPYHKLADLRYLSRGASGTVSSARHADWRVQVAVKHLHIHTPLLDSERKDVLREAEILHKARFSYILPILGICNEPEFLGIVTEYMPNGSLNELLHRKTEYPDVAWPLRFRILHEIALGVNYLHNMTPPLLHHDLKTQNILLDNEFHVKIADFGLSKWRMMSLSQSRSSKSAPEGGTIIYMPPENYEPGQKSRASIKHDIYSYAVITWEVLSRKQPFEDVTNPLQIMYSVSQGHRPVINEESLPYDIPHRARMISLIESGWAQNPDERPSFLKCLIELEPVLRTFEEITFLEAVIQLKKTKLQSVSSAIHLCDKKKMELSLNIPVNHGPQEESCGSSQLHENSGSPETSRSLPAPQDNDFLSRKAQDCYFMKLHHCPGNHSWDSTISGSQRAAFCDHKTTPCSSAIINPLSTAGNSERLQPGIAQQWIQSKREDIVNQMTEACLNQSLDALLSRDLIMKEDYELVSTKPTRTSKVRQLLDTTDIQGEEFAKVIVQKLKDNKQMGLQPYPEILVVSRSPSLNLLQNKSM

JAK2 JH1 JH2 (human) = JAK2 JH1 JH2 (human) (UniProt O60674)
SRPK1 (human) = SRPK1 (human) (UniProt Q96SB4)
MAP3K1 (human) = MAP3K1 (human) (UniProt Q13233)
[2] = tested on: RPS6KB1 (human), P23443 [T412E]
MAPKAPK3 (human) = MAPKAPK3 (human) (UniProt Q16644)
FLT1 (human) = FLT1 (human) (UniProt P17948)
CLK2 (human) = CLK2 (human) (UniProt P49760); conditions: compound 0.1 µM
CSNK1D (human) = CSNK1D (human) (UniProt P48730)
CSNK1D (human), sequence (P48730 whole entry, looked up): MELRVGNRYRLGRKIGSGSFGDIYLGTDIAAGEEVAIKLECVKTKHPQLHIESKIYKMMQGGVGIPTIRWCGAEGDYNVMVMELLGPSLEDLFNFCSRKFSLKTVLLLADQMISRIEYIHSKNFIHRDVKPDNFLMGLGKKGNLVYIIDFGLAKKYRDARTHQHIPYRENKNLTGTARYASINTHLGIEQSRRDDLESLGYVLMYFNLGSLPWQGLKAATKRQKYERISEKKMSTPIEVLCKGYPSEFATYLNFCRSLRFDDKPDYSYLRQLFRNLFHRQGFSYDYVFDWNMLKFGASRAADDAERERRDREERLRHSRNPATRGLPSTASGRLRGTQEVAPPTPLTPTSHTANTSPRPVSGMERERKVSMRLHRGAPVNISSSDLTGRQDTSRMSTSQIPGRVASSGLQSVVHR

[3] = target: STK11 CAB39 STRADA (human) (UniProt Q9Y376+Q7RTN6+Q15831)
HIPK1 (human) = HIPK1 (human) (UniProt Q86Z02)
RPS6KA1 KD1 KD2 (human) = RPS6KA1 KD1 KD2 (human) (UniProt Q15418)

NEK2 (human), sequence (P51955 whole entry, looked up): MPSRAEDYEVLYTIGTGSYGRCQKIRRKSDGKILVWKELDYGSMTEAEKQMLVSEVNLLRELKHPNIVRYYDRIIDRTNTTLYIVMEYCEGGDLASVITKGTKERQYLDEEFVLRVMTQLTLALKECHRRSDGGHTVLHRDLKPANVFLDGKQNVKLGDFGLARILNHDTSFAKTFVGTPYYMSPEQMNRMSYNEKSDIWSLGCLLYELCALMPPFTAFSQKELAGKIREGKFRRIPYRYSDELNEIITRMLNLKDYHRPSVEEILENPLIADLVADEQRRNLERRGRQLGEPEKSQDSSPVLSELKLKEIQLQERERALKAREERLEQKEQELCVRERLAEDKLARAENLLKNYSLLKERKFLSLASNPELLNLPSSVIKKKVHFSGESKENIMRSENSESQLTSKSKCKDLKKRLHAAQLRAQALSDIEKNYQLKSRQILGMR

residual activity (PRKCA (human); compound 0.1 µM): 100% | residual activity (HIPK2 (human); compound 0.1 µM): 80% | residual activity (YES1 (human); compound 0.1 µM): 4% | residual activity (NEK6 (human); compound 0.1 µM): 101% | residual activity (NEK2 (human); compound 0.1 µM): 94% | residual activity (MAP3K9 (human); compound 0.1 µM): 86% | residual activity (MAPK11 (human); compound 0.1 µM): 85% | residual activity ([1]; compound 0.1 µM): 86% | residual activity (INSRR (human); compound 0.1 µM): 123% | residual activity (BTK (human); compound 0.1 µM): 57% | residual activity (DYRK2 (human); compound 0.1 µM): 109% | residual activity (INSR (human); compound 0.1 µM): 90% | residual activity (MAPK14 (human); compound 0.1 µM): 108% | residual activity (MARK4 (human); compound 0.1 µM): 95% | residual activity (CSNK2A1 (human); compound 0.1 µM): 112% | residual activity (MAPK1 (human); compound 0.1 µM): 100% | residual activity (MARK3 (human); compound 0.1 µM): 99% | residual activity (NTRK1 (human); compound 0.1 µM): 93% | residual activity (IRAK4 (human); compound 0.1 µM): 100% | residual activity (MKNK2 (human); compound 0.1 µM): 110% | residual activity (RPS6KA5 KD1 KD2 (human); compound 0.1 µM): 103% | residual activity (AURKA (human); compound 0.1 µM): 112% | residual activity (RIPK2 (human); compound 0.1 µM): 9% | residual activity (JAK2 JH1 JH2 (human); compound 0.1 µM): 102% | residual activity (SRPK1 (human); compound 0.1 µM): 82% | residual activity (MAP3K1 (human); compound 0.1 µM): 84% | residual activity ([2]; compound 0.1 µM): 93% | residual activity (MAPKAPK3 (human); compound 0.1 µM): 92% | residual activity (FLT1 (human); compound 0.1 µM): 116% | residual activity (CLK2 (human)): 111% | residual activity (CSNK1D (human); compound 0.1 µM): 115% | residual activity ([3]; compound 0.1 µM): 112%
SMILES: CN1CCN(CCOc2cc(OC3CCOCC3)c3c(Nc4c(Cl)ccc5c4OCO5)ncnc3c2)CC1
residual activity (MAPK15 (human); compound 0.1 µM): 134%

residual activity (PRKCA (human); compound 100.0 µM): 81% | residual activity (HIPK2 (human); compound 100.0 µM): 42% | residual activity (YES1 (human); compound 100.0 µM): 52% | residual activity (NEK2 (human); compound 100.0 µM): 118% | residual activity (MAP3K9 (human); compound 100.0 µM): 58% | residual activity (MAPK11 (human); compound 100.0 µM): 58% | residual activity ([1]; compound 100.0 µM): 37% | residual activity (INSRR (human); compound 100.0 µM): 103% | residual activity (BTK (human); compound 100.0 µM): 102% | residual activity (DYRK2 (human); compound 100.0 µM): 78% | residual activity (INSR (human); compound 100.0 µM): 141% | residual activity (MAPK14 (human); compound 100.0 µM): 58% | residual activity (MARK4 (human); compound 100.0 µM): 81% | residual activity (CSNK2A1 (human); compound 100.0 µM): 51% | residual activity (MAPK1 (human); compound 100.0 µM): 134% | residual activity (MARK3 (human); compound 100.0 µM): 96% | residual activity (NTRK1 (human); compound 100.0 µM): 65% | residual activity (MKNK2 (human); compound 100.0 µM): 100% | residual activity (RPS6KA5 KD1 KD2 (human); compound 100.0 µM): 84% | residual activity (AURKA (human); compound 100.0 µM): 32% | residual activity (HIPK1 (human); compound 100.0 µM): 94% | residual activity (RIPK2 (human); compound 100.0 µM): 46% | residual activity (JAK2 JH1 JH2 (human); compound 100.0 µM): 71% | residual activity (SRPK1 (human); compound 100.0 µM): 59% | residual activity (MAP3K1 (human); compound 100.0 µM): 88% | residual activity ([2]; compound 100.0 µM): 102% | residual activity (MAPKAPK3 (human); compound 100.0 µM): 62% | residual activity (FLT1 (human); compound 100.0 µM): 62% | residual activity (RPS6KA1 KD1 KD2 (human); compound 100.0 µM): 99% | residual activity ([3]; compound 100.0 µM): 126%
SMILES: Cc1cc(N=Nc2cc(S(=O)(=O)O)c(C)cc2C)c(N)cc1O
residual activity (MAPK15 (human); compound 100.0 µM): 65%

residual activity (PRKCA (human); compound 0.1 µM): 99% | residual activity (PRKCA (human); compound 10.0 µM): 100% | residual activity (HIPK2 (human); compound 10.0 µM): 66% | residual activity (YES1 (human); compound 0.1 µM): 20% | residual activity (YES1 (human); compound 1.0 µM): 16% | residual activity (YES1 (human); compound 10.0 µM): 13% | residual activity (NEK6 (human); compound 0.1 µM): 76% | residual activity (NEK6 (human); compound 1.0 µM): 99% | residual activity (NEK6 (human); compound 10.0 µM): 93% | residual activity (NEK2 (human); compound 0.1 µM): 93% | residual activity (NEK2 (human); compound 1.0 µM): 107% | residual activity (NEK2 (human); compound 10.0 µM): 35% | residual activity (MAP3K9 (human); compound 0.1 µM): 104% | residual activity (MAP3K9 (human); compound 1.0 µM): 89% | residual activity (MAP3K9 (human); compound 10.0 µM): 27% | residual activity (MAPK11 (human); compound 1.0 µM): 103% | residual activity (MAPK11 (human); compound 10.0 µM): 68% | residual activity ([1]; compound 0.1 µM): 80% | residual activity ([1]; compound 1.0 µM): 93% | residual activity ([1]; compound 10.0 µM): 71% | residual activity (INSRR (human); compound 0.1 µM): 94% | residual activity (INSRR (human); compound 1.0 µM): 101% | residual activity (INSRR (human); compound 10.0 µM): 29% | residual activity (DYRK2 (human); compound 0.1 µM): 83% | residual activity (DYRK2 (human); compound 1.0 µM): 105% | residual activity (DYRK2 (human); compound 10.0 µM): 79% | residual activity (INSR (human); compound 0.1 µM): 77% | residual activity (INSR (human); compound 10.0 µM): 31% | residual activity (MAPK14 (human); compound 0.1 µM): 99% | residual activity (MAPK14 (human); compound 1.0 µM): 103% | residual activity (MAPK14 (human); compound 10.0 µM): 101% | residual activity (MARK4 (human); compound 0.1 µM): 111% | residual activity (MARK4 (human); compound 1.0 µM): 114% | residual activity (MARK4 (human); compound 10.0 µM): 80% | residual activity (CSNK2A1 (human); compound 0.1 µM): 104% | residual activity (CSNK2A1 (human); compound 1.0 µM): 115% | residual activity (CSNK2A1 (human); compound 10.0 µM): 111% | residual activity (MAPK1 (human); compound 0.1 µM): 94% | residual activity (MAPK1 (human); compound 1.0 µM): 99% | residual activity (MAPK1 (human); compound 10.0 µM): 90% | residual activity (MARK3 (human); compound 0.1 µM): 98% | residual activity (MARK3 (human); compound 1.0 µM): 94% | residual activity (MARK3 (human); compound 10.0 µM): 76% | residual activity (NTRK1 (human); compound 0.1 µM): 64% | residual activity (NTRK1 (human); compound 1.0 µM): 46% | residual activity (NTRK1 (human); compound 10.0 µM): 13% | residual activity (IRAK4 (human); compound 0.1 µM): 103% | residual activity (IRAK4 (human); compound 1.0 µM): 102% | residual activity (IRAK4 (human); compound 10.0 µM): 86% | residual activity (MKNK2 (human); compound 0.1 µM): 106% | residual activity (MKNK2 (human); compound 10.0 µM): 67% | residual activity (RPS6KA5 KD1 KD2 (human); compound 0.1 µM): 94% | residual activity (RPS6KA5 KD1 KD2 (human); compound 1.0 µM): 101% | residual activity (RPS6KA5 KD1 KD2 (human); compound 10.0 µM): 55% | residual activity (AURKA (human); compound 0.1 µM): 92% | residual activity (AURKA (human); compound 1.0 µM): 57% | residual activity (AURKA (human); compound 10.0 µM): 10% | residual activity (HIPK1 (human); compound 0.1 µM): 75% | residual activity (HIPK1 (human); compound 1.0 µM): 87% | residual activity (HIPK1 (human); compound 10.0 µM): 75% | residual activity (RIPK2 (human); compound 0.1 µM): 21% | residual activity (RIPK2 (human); compound 1.0 µM): 5% | residual activity (RIPK2 (human); compound 10.0 µM): 2% | residual activity (JAK2 JH1 JH2 (human); compound 0.1 µM): 90% | residual activity (JAK2 JH1 JH2 (human); compound 1.0 µM): 103% | residual activity (JAK2 JH1 JH2 (human); compound 10.0 µM): 83% | residual activity (SRPK1 (human); compound 0.1 µM): 100% | residual activity (SRPK1 (human); compound 1.0 µM): 115% | residual activity (SRPK1 (human); compound 10.0 µM): 99% | residual activity (MAP3K1 (human); compound 0.1 µM): 106% | residual activity (MAP3K1 (human); compound 1.0 µM): 103% | residual activity (MAP3K1 (human); compound 10.0 µM): 56% | residual activity ([2]; compound 0.1 µM): 93% | residual activity ([2]; compound 1.0 µM): 86% | residual activity ([2]; compound 10.0 µM): 66% | residual activity (MAPKAPK3 (human); compound 0.1 µM): 109% | residual activity (MAPKAPK3 (human); compound 1.0 µM): 109% | residual activity (FLT1 (human); compound 0.1 µM): 40% | residual activity (FLT1 (human); compound 1.0 µM): 7% | residual activity (FLT1 (human); compound 10.0 µM): 2% | residual activity (RPS6KA1 KD1 KD2 (human); compound 0.1 µM): 94% | residual activity (RPS6KA1 KD1 KD2 (human); compound 1.0 µM): 101% | residual activity (RPS6KA1 KD1 KD2 (human); compound 10.0 µM): 46% | residual activity (CSNK1D (human); compound 0.1 µM): 98% | residual activity (CSNK1D (human); compound 1.0 µM): 111% | residual activity (CSNK1D (human); compound 10.0 µM): 115% | residual activity ([3]; compound 0.1 µM): 106% | residual activity ([3]; compound 10.0 µM): 100%
SMILES: C=CC(=O)N1CCC[C@@H](n2nc(-c3ccc(Oc4ccccc4)cc3)c3c(N)ncnc32)C1
residual activity (MAPK15 (human); compound 0.1 µM): 85% | residual activity (MAPK15 (human); compound 1.0 µM): 98% | residual activity (MAPK15 (human); compound 10.0 µM): 74%
